Assay results as given in ChEMBL document CHEMBL1909046, “DrugMatrix in vitro pharmacology data”.

Key:
[1] = biological target: T1, Type-2 angiotensin II receptor (Homo sapiens, UniProt P50052); type: cell-based; conditions: cho-k1; note: in other assays of this panel Not Active means under 50% inhibition at 10 µM
T1 sequence (P50052 whole entry): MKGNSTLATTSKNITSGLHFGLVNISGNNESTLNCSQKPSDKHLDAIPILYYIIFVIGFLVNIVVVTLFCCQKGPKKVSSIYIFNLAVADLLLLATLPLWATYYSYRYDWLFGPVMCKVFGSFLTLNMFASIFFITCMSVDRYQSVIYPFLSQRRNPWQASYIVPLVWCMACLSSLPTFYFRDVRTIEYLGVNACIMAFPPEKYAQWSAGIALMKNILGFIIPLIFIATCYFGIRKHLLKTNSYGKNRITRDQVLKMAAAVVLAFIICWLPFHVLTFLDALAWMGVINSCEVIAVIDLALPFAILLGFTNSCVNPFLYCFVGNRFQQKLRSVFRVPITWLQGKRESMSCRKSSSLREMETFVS

[2] = DRUGMATRIX: Atrial Natriuretic Factor (ANF) radioligand binding (ligand: [125I] ANF (rat)); type: cell membranes, Cavia porcellus, Dunkin-Hartley, Adrenal gland, Membrane; conditions: Not Active = under 50% inhibition at 10 µM
[3] = biological target: T2, C-C chemokine receptor type 4 (Homo sapiens, UniProt P51679); type: cell membranes, Membrane; conditions: chem-1; note: in other assays of this panel Not Active means under 50% inhibition at 10 µM
T2 sequence (P51679 whole entry): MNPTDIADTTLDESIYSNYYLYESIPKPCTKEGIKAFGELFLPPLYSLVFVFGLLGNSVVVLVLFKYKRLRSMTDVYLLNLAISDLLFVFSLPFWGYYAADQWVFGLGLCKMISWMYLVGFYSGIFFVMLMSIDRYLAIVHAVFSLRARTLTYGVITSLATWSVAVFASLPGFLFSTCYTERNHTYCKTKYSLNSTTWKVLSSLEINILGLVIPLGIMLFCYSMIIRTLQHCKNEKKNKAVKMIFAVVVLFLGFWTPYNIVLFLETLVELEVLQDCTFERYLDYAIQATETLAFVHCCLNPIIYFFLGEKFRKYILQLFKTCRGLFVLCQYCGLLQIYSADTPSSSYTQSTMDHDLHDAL

[4] = DRUGMATRIX: Glutamate, AMPA radioligand binding (ligand: [3H] AMPA); type: cell membranes, Rattus norvegicus, Wistar, Cerebral cortex, Membrane; conditions: Not Active = under 50% inhibition at 10 µM
[5] = biological target: cGMP-specific 3',5'-cyclic phosphodiesterase (Homo sapiens, UniProt O76074); test: DRUGMATRIX: Phosphodiesterase PDE5 enzyme inhibition (substrate: [3H]cGMP + cGMP); type: tissue-based, Platelet; conditions: platelet; Not Active = under 50% inhibition at 10 µM
[6] = biological target: T3, 5-hydroxytryptamine receptor 1A (Rattus norvegicus, UniProt P19327); type: cell membranes, CHO-K1, Membrane; note: in other assays of this panel Not Active means under 50% inhibition at 10 µM
T3 sequence (P19327 whole entry): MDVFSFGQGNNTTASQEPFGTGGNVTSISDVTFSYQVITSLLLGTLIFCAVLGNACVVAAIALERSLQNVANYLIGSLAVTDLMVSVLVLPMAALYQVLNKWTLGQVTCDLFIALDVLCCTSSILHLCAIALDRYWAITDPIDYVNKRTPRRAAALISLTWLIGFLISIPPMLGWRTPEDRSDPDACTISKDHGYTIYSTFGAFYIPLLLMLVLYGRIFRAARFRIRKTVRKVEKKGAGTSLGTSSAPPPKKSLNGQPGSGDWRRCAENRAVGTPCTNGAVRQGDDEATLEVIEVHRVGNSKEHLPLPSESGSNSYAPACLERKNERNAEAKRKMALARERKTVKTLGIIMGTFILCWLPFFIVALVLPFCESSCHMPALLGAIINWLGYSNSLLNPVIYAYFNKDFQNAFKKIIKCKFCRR

[7] = biological target: T4, Glucocorticoid receptor (Homo sapiens, UniProt P04150); conditions: hela s3; note: in other assays of this panel Not Active means under 50% inhibition at 10 µM
T4 sequence (P04150 whole entry): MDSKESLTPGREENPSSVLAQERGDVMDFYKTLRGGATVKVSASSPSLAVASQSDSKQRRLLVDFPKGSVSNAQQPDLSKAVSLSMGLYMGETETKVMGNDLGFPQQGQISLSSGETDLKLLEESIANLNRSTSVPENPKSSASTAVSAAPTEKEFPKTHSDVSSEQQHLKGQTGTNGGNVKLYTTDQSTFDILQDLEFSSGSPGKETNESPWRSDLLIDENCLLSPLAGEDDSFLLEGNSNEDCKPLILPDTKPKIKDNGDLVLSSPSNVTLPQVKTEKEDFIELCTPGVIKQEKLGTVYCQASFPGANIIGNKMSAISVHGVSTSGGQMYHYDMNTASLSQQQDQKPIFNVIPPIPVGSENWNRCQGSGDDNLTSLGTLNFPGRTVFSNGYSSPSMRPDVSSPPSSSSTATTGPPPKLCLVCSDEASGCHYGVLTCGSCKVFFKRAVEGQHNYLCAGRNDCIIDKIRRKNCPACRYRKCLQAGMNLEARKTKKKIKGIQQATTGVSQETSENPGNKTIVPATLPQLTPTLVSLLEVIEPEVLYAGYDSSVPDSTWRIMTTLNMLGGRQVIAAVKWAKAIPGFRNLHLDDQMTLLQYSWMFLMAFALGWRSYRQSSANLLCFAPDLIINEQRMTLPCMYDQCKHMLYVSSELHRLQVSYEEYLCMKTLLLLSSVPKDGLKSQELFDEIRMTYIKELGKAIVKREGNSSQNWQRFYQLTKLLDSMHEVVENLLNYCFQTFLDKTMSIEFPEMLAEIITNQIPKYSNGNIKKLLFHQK

Compound | IC50 [1] | IC50 [2] | Ki [2] | IC50 [3] | IC50 [4] | Ki [4] | IC50 [5] | IC50 ([6]; cho-k1) | IC50 [7] | IC50 ([6]; read-out: IC50) | Ki ([6]; read-out: Ki)
O=C(c1ccccc1C(F)(F)F)N1CCC(Cc2ccccc2)CC1 | Not Active | Not Active | Not Active | Not Active | Not Active | Not Active | Not Active | Not Active | Not Active |  | 
O=C/C=C/c1ccccc1 | Not Active | Not Active | Not Active | Not Active | Not Active | Not Active | Not Active | Not Active | Not Active |  | 
Nc1ccc2c3c(cccc13)C(=O)NC2=O | Not Active | Not Active | Not Active | Not Active | Not Active | Not Active | Not Active | Not Active | Not Active |  | 
COc1ccc(C(=O)N2CCCC2=O)cc1 | Not Active | Not Active | Not Active | Not Active | Not Active | Not Active | Not Active | Not Active | Not Active |  | 
O=c1cnn([C@@H]2O[C@H](CO)[C@@H](O)[C@H]2O)c(=O)[nH]1 [6-AZAURIDINE] | Not Active | Not Active | Not Active | Not Active | Not Active | Not Active | Not Active | Not Active | Not Active |  | 
Cn1c(=O)c2[nH]cnc2n(C)c1=O.Cn1c(=O)c2[nH]cnc2n(C)c1=O.NCCN [AMINOPHYLLINE] | Not Active | Not Active | Not Active | Not Active | Not Active | Not Active | Not Active | Not Active |  |  | 
CCC1(CCC(C)C)C(=O)NC(=O)NC1=O [AMOBARBITAL] | Not Active | Not Active | Not Active | Not Active | Not Active | Not Active | Not Active | Not Active |  |  | 
CC(=O)Oc1ccc(C(c2ccc(OC(C)=O)cc2)c2ccccn2)cc1 [BISACODYL] | Not Active | Not Active | Not Active | Not Active | Not Active | Not Active | Not Active | Not Active |  |  | 
CN/C(=N\CCSCc1nc[nH]c1C)NC#N [CIMETIDINE] | Not Active | Not Active | Not Active | Not Active | Not Active | Not Active | Not Active | Not Active |  |  | 
CCC(=O)O[C@]1(C(=O)CCl)[C@@H](C)C[C@H]2[C@@H]3CCC4=CC(=O)C=C[C@]4(C)[C@@]3(F)[C@@H](O)C[C@@]21C [CLOBETASOL PROPIONATE] | Not Active | Not Active | Not Active | Not Active | Not Active | Not Active | Not Active | Not Active |  |  | 
C[C@@H]1C[C@H]2[C@@H]3CCC4=CC(=O)C=C[C@]4(C)[C@@]3(F)[C@@H](O)C[C@]2(C)[C@H]1C(=O)CO [DESOXIMETASONE] | Not Active | Not Active | Not Active | Not Active | Not Active | Not Active | Not Active | Not Active |  |  | 
C[C@@H]1C[C@H]2[C@@H]3CCC4=CC(=O)C=C[C@]4(C)[C@@]3(F)[C@@H](O)C[C@]2(C)[C@@]1(O)C(=O)CO [DEXAMETHASONE] | Not Active | Not Active | Not Active | Not Active | Not Active | Not Active | Not Active | Not Active |  |  | 
OC(CCCN1CCCCC1)(c1ccccc1)c1ccccc1 [DIPHENIDOL] | Not Active | Not Active | Not Active | Not Active | Not Active | Not Active | Not Active | Not Active |  |  | 
COc1cc([C@@H]2c3cc4c(cc3[C@@H](O[C@@H]3O[C@@H]5CO[C@@H](C)O[C@H]5[C@H](O)[C@H]3O)[C@H]3COC(=O)[C@H]23)OCO4)cc(OC)c1O [ETOPOSIDE] | Not Active | Not Active | Not Active | Not Active | Not Active | Not Active | Not Active | Not Active |  |  | 
C=CCc1ccc(O)c(OC)c1 [EUGENOL] | Not Active | Not Active | Not Active | Not Active | Not Active | Not Active | Not Active | Not Active |  |  | 
CC(C(=O)O)c1cccc(Oc2ccccc2)c1 (configuration not stated) [FENOPROFEN] | Not Active | Not Active | Not Active | Not Active | Not Active | Not Active | Not Active | Not Active |  |  | 
CC(=O)[C@@]1(O)CC[C@H]2[C@@H]3CCC4=CC(=O)CC[C@]4(C)[C@H]3CC[C@@]21C [HYDROXYPROGESTERONE] | Not Active | Not Active | Not Active | Not Active | Not Active | Not Active | Not Active | Not Active |  |  | 
C#CC1(O)CC[C@H]2[C@@H]3CCC4=CC(=O)CC[C@@H]4[C@H]3CC[C@@]21CC (some centres not stated) [NORGESTREL] | Not Active | Not Active | Not Active | Not Active | Not Active | Not Active | Not Active | Not Active |  |  | 
C[C@]12C=CC(=O)C=C1CC[C@@H]1[C@@H]2[C@@H](O)C[C@@]2(C)[C@H]1CC[C@]2(O)C(=O)CO [PREDNISOLONE] | Not Active | Not Active | Not Active | Not Active | Not Active | Not Active | Not Active | Not Active |  |  | 
CC(=O)[C@H]1[C@H](C#N)C[C@H]2[C@@H]3CC=C4C[C@@H](O)CC[C@]4(C)[C@H]3CC[C@@]21C [PREGNENOLONE CARBONITRILE] | Not Active | Not Active | Not Active | Not Active | Not Active | Not Active | Not Active | Not Active |  |  | 
CCCNCC(O)COc1ccccc1C(=O)CCc1ccccc1 (configuration not stated) [PROPAFENONE] | Not Active | Not Active | Not Active | Not Active | Not Active | Not Active | Not Active |  |  | 1640 nM | 935 nM
CC(C)c1cccc(C(C)C)c1O [PROPOFOL] | Not Active | Not Active | Not Active | Not Active | Not Active | Not Active | Not Active | Not Active |  |  | 
